Reference: PubChem BioAssay AID1259411 (Chemical Carcinogenesis Research Information System (CCRIS), 2018)
The source made the active and inactive calls. No rule for the calls is given here.

Tested on: rodent carcinogenicity bioassays, tumor incidence
Experiment: CCRIS carcinogenicity studies
Conditions: Dose: 0, Dose: 0
In short: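 Archive of carcinogenicity, mutagenicity, tumor promotion and tumor inhibition results drawn from journals, NCI reports and other sources, expert-reviewed; covers 1985-2011 and is no longer updated.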

Q: What does the source list for `N#Cc1c(Cl)c(Cl)c(Cl)c(C#N)c1Cl`?
A: carcinogen call (Species: MOUSE, Strain/Sex: B6C3F1/FEMALE, Route: ORAL, 3000, 6000 PPM IN DIET, TWA, 3000, 6000 PPM IN DIET, TWA): inactive; negative; carcinogen call (Species: MOUSE, Strain/Sex: B6C3F1/MALE, Route: ORAL, 2688, 5375 PPM IN DIET, TWA, 2688, 5375 PPM IN DIET, TWA): inactive; negative; carcinogen call (Species: Mouse, Strain/Sex: CD-1/Female (60 per group), Route: Oral, 750, 1,500, 3,000 ppm in diet for 2 yr, 750, 1,500, 3,000 ppm in diet for 2 yr, Tumor Site: Type of Lesion: Forestomach: Squamous cell papillomas or carcinomas (0, 2, 6, 5), No dose response): active; positive (ca dpr describes as possible adverse effect; study details not given i; carcinogen call (Species: Mouse, Strain/Sex: CD-1/Male (60 per group), Route: Oral, 750, 1,500, 3,000 ppm in diet for 2 yr, 750, 1,500, 3,000 ppm in diet for 2 yr, Tumor Site: Type of Lesion: Kidney: renal tubular adenoma or carcinoma (0, 6, 4, 4). Forestomach: Squamous cell papillomas or carcinomas (0, 2, 5, 2): active; positive without dose response (ca dpr describes as possible adverse effect); st; carcinogen call (Species: RAT, Strain/Sex: OSBORNE-MENDEL/FEMALE, Route: ORAL, 5063, 10126 PPM IN DIET, TWA, 5063, 10126 PPM IN DIET, TWA, Tumor Site: Type of Lesion: KIDNEY: ADENOMA OR CARCINOMA (NOS) OR TUBULAR CELL ADENOMA OR TUBULAR CELL ADENOCARCINOMA): active; positive; carcinogen call (Species: RAT, Strain/Sex: OSBORNE-MENDEL/MALE, Route: ORAL, 5063, 10126 PPM IN DIET, TWA, 5063, 10126 PPM IN DIET, TWA, Tumor Site: Type of Lesion: KIDNEY: CARCINOMA (NOS) OR TUBULAR CELL ADENOMA OR TUBULAR CELL ADENOCARCINOMA OR ADENOCARCINOMA OR PAPILLARY ADENOMA): active; positive; carcinogen call (Species: Rat, Strain/Sex: Fischer 344/Female (55 per group), Route: Oral, 1.8, 3.8, 15.2, 183 mg/kg/day in diet for 125 wks, 1.8, 3.8, 15.2, 183 mg/kg/day in diet for 125 wks, Tumor Site: Type of Lesion: Kidney: Renal tubular adenomas and carcinomas (0, 0, 0, 0, 32 in 53-55 animals). Forestomach: Papillomas and carcinomas): active; positive (study details not given in source); carcinogen call (Species: Rat, Strain/Sex: Fischer 344/Male (55 per group), Route: Oral, 1.8, 3.8, 15.2, 183 mg/kg/day in diet for 99 wks (high dose) or 111 wk (all others), 1.8, 3.8, 15.2, 183 mg/kg/day in diet for 99 wks (high dose) or 111 wk (all others), Tumor Site: Type of Lesion: Kidney: Renal tubular adenomas and carcinomas (1, 1, 1, 4, 23 in 53-55 animals) Forestomach: Papillomas and carcinomas (): active; positive (study details not given in source); carcinogen call (Species: Rat, Strain/Sex: Sprague-Dawley/Female (50 per group), Route: Oral, 15, 60, 240, 1,200 mg/kg/day in diet for 2 yr, 15, 60, 240, 1,200 mg/kg/day in diet for 2 yr, Tumor Site: Type of Lesion: Forestomach: Papillomas or carcinomas (0, 0, 0, 2, 1), Not significant): inactive; negative (ca dpr describes as possible adverse effect; study details not given i; carcinogen call (Species: Rat, Strain/Sex: Sprague-Dawley/Male (50 per group), Route: Oral, 15, 60, 240, 1,200 mg/kg/day in diet for 2 yr, 15, 60, 240, 1,200 mg/kg/day in diet for 2 yr, Tumor Site: Type of Lesion: Forestomach: Papillomas or carcinomas (0, 0, 0, 0, 3), Borderline significance): active; positive at highest dose (ca dpr describes as possible adverse effect; study det

Q: With `CCOC(OCC)C(=O)c1ccccc1` as the molecule, how does the carcinogen call (Species: MOUSE, Strain/Sex: C3H/HEJ/MALE, Route: DERMAL, 11.3 MG AS A 50% DILUTION IN ACETONE 3/WK FOR LIFESPAN (STUDY DURATION: LIFESPAN)) read?
A: inactive; negative

Q: And the carcinogen call (Species: MOUSE, Strain/Sex: C3H/HEJ/MALE, Route: DERMAL, 25 MG UNDILUTED 3/WK FOR LIFESPAN (STUDY DURATION: LIFESPAN))?
A: inactive; negative

Q: With `O=c1[nH]c(=O)n(C2CCCO2)cc1F` (stereo not drawn) as the molecule, how does the carcinogen call (Species: MOUSE, Strain/Sex: C57BL/CBA/FEMALE, Route: GAVAGE, 40 MG/KG IN 0.2 ML OF A STARCH/WATER SUSPENSION 2/WK FOR 12 MO (STUDY DURATION: LIFETIME)) read?
A: inactive; negative

Q: What about the carcinogen call (Species: MOUSE, Strain/Sex: C57BL/CBA/MALE, Route: GAVAGE, 40 MG/KG IN 0.2 ML OF A STARCH/WATER SUSPENSION 2/WK FOR 12 MO (STUDY DURATION: LIFETIME)) of the same molecule?
A: inactive; negative

Q: What about the carcinogen call (Species: RAT, Strain/Sex: WISTAR/FEMALE, Route: GAVAGE, 60 MG/KG IN 0.5 ML OF A STARCH/WATER SUSPENSION 2/WK FOR 12 MO (STUDY DURATION: LIFETIME)) of the same molecule?
A: inactive; negative

Q: And the carcinogen call (Species: RAT, Strain/Sex: WISTAR/MALE, Route: GAVAGE, 60 MG/KG IN 0.5 ML OF A STARCH/WATER SUSPENSION 2/WK FOR 12 MO (STUDY DURATION: LIFETIME))?
A: inactive; negative

Q: `C[CH2][Pb]([CH2]C)([CH2]C)[CH2]C` was tested. Which carcinogen call (Species: MOUSE, Strain/Sex: ICR/FEMALE, Route: SUBCUTANEOUS, 0.1 MG IN TRICAPRYLIN AT DAYS 1 AND 7 OF AGE AND 0, 0.2 MG AT DAYS 14 AND 21 OF AGE FOR A TOTAL DOSE OF 0, 0.6 MG (ST, 0.1 MG IN TRICAPRYLIN AT DAYS 1 AND 7 OF AGE AND 0, 0.2 MG AT DAYS 14 AND 21 OF AGE FOR A TOTAL DOSE OF 0, 0.6 MG (ST, Tumor Site: Type of Lesion: HEMATOPOIETIC SYSTEM: LYMPHOMA) did it give?
A: active; positive

Q: And the carcinogen call (Species: MOUSE, Strain/Sex: ICR/MALE, Route: SUBCUTANEOUS, 0.1 MG IN TRICAPRYLIN ON DAYS 1 AND 7 OF AGE AND 0, 0.2 MG ON DAYS 14 AND 21 OF AGE FOR A TOTAL DOSE OF 0, 0.6 MG (ST, 0.1 MG IN TRICAPRYLIN ON DAYS 1 AND 7 OF AGE AND 0, 0.2 MG ON DAYS 14 AND 21 OF AGE FOR A TOTAL DOSE OF 0, 0.6 MG (ST)?
A: inactive; negative

Q: How did the carcinogen call (Species: MOUSE, Strain/Sex: B6C3F1/FEMALE, Route: ORAL, 600, 1200, 7200 PPM IN DIET FOR 18 MO (STUDY DURATION: 18 MO), 600, 1200, 7200 PPM IN DIET FOR 18 MO (STUDY DURATION: 18 MO), Tumor Site: Type of Lesion: LIVER: HEPATOCELLULAR ADENOMA, HEPATOCELLULAR CARCINOMA) turn out when `CN1CCCC1=O` was run?
A: active; positive

Q: And the carcinogen call (Species: MOUSE, Strain/Sex: B6C3F1/MALE, Route: ORAL, 600, 1200, 7200 PPM IN DIET FOR 18 MO (STUDY DURATION: 18 MO), 600, 1200, 7200 PPM IN DIET FOR 18 MO (STUDY DURATION: 18 MO), Tumor Site: Type of Lesion: LIVER: HEPATOCELLULAR ADENOMA, HEPATOCELLULAR CARCINOMA)?
A: active; positive

Q: And the carcinogen call (Species: RAT, Strain/Sex: CD-1/FEMALE, Route: INHALATION, 0.04, 0.4 MG/L 6 HR/D 5D/WK FOR 2 YR (STUDY DURATION: 2 YR), 0.04, 0.4 MG/L 6 HR/D 5D/WK FOR 2 YR (STUDY DURATION: 2 YR))?
A: inactive; negative

Q: What about the carcinogen call (Species: RAT, Strain/Sex: CD-1/FEMALE, Route: ORAL, 1600, 5000, 15000 PPM IN DIET FOR 2 YR (STUDY DURATION: 2 YR), 1600, 5000, 15000 PPM IN DIET FOR 2 YR (STUDY DURATION: 2 YR)) of the same molecule?
A: inactive; negative

Q: What about the carcinogen call (Species: RAT, Strain/Sex: CD-1/MALE, Route: INHALATION, 0.04, 0.4 MG/L 6 HR/D 5D/WK FOR 2 YR (STUDY DURATION: 2 YR), 0.04, 0.4 MG/L 6 HR/D 5D/WK FOR 2 YR (STUDY DURATION: 2 YR)) of the same molecule?
A: inactive; negative

Q: And the carcinogen call (Species: RAT, Strain/Sex: CD-1/MALE, Route: ORAL, 1600, 5000, 15000 PPM IN DIET FOR 2 YR (STUDY DURATION: 2 YR), 1600, 5000, 15000 PPM IN DIET FOR 2 YR (STUDY DURATION: 2 YR))?
A: inactive; negative

Q: Which carcinogen call (Species: MOUSE, Strain/Sex: B6C3F1/FEMALE, Route: ORAL, 2.5, 5 PPM IN DIET, TWA, 2.5, 5 PPM IN DIET, TWA) does the source give for `ClC1=C(Cl)[C@]2(Cl)[C@@H]3[C@H]4C[C@H]([C@@H]5O[C@H]45)[C@@H]3[C@@]1(Cl)C2(Cl)Cl` here?
A: inactive; negative

Q: What about the carcinogen call (Species: MOUSE, Strain/Sex: B6C3F1/MALE, Route: ORAL, 1.6, 3.2 PPM IN DIET, TWA, 1.6, 3.2 PPM IN DIET, TWA) of the same molecule?
A: inactive; negative

Q: And the carcinogen call (Species: RAT, Strain/Sex: OSBORNE-MENDEL/FEMALE, Route: ORAL, 3, 6 PPM IN DIET, TWA, 3, 6 PPM IN DIET, TWA)?
A: inactive; negative

Q: And the carcinogen call (Species: RAT, Strain/Sex: OSBORNE-MENDEL/MALE, Route: ORAL, 2.5, 5 PPM IN DIET, TWA, 2.5, 5 PPM IN DIET, TWA)?
A: inactive; negative
